In this test the target is T1, human mAChR M4 (Homo sapiens, UniProt P08173).
T1 construct: expressed in transfected cells; host or cells: CHO-K1 (American Type Culture Collection), stably expressing hM4 and Gqi5
T1 sequence (P08173 1-479): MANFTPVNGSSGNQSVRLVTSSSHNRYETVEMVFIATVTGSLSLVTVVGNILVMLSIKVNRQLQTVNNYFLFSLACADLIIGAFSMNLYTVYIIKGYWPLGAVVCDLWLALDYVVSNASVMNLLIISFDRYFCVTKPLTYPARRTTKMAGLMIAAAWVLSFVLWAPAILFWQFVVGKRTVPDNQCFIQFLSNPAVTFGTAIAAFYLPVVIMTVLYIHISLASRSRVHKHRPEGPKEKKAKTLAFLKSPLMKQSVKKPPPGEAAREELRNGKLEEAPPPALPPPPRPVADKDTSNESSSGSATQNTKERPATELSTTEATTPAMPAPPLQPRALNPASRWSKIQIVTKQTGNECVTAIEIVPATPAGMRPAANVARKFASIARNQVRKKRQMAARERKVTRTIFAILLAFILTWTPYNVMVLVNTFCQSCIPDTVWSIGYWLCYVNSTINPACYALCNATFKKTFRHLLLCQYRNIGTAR
Kind of test: mAChR M4 cell-based functional assay: calcium mobilization (Fluo-4, FDSS), potentiation of EC20 acetylcholine response in hM4-Gqi5 CHO-K1 cells. Particulars: human M4; for Emax at 30 µM: CHO-K1, % ACh maximum at 30 μM; for EC50: potentiation of EC20 acetylcholine response, calcium mobilization. Summed up: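 CHO-K1 cells stably co-expressing human M4 and chimeric Gqi5, loaded with Fluo-4 AM (50 min, 37 °C). Compounds in 11-point 1:3 series added first; EC20 acetylcholine added at 144 s and again at 230 s. Calcium read on FDSS at 1 Hz; EC50 and Emax from four-parameter logistic fit of potentiated EC20 response.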

In general, Emax refers to the size of the effect at its maximum, as opposed to the concentration needed. What is called EC50 is the concentration at which the effect is half-maximal. `Cc1cc(F)c(F)c(-c2cnc3c(c2)CN(c2nn4c(=O)cc(C)nc4c(C)c2C)CC3)c1` [Compound 1-272, 7-(3-(2,3-difluoro-5-methylphenyl)-7,8-dihydro-1,6-naphthyridin-6(5H)-yl)-2,8,9-trimethyl-4H-pyrimido[1,2-b]pyridazin-4-one]: the maximum response (Emax) at 30 µM stood at 82% and the EC50 came to 810 nM.
With `Cc1cc2nccc(=O)n2nc1N1CCc2ncc(Cc3cccnc3)cc2C1` [Compound 1-378, 8-methyl-7-(3-(pyridin-3-ylmethyl)-7,8-dihydro-1,6-naphthyridin-6(5H)-yl)-4H-pyrimido[1,2-b]pyridazin-4-one], the Emax at 30 µM was 83% and the EC50 was 898 nM.
Take `Cc1cc2nccc(=O)n2nc1N1CCc2ncc(-c3cn(C)nc3C(F)F)cc2C1` [Compound 1-412, 7-(3-(3-(difluoromethyl)-1-methyl-1H-pyrazol-4-yl)-7,8-dihydro-1,6-naphthyridin-6(5H)-yl)-8-methyl-4H-pyrimido [1,2-b]pyridazin-4-one]: the Emax at 30 µM was 86% and the EC50 amounted to 352 nM.
Taken in the same sequence, the figures for `Cc1c(N2CCc3ncc(-c4cncc(C(F)(F)F)c4)cc3C2)nn2c(=O)cc(C(F)F)nc2c1C` [Compound 1-154, 2-(difluoromethyl)-8,9-dimethyl-7-(3-(5-(trifluoromethyl)pyridin-3-yl)-7,8-dihydro-1,6-naphthyridin-6(5H)-yl)-4H-pyrimido[1,2-b]pyridazin-4-one] were 80% and 401 nM.
For the compound `Cc1cc(=O)n2nc(N3CCc4ncc(-c5cnn6ccccc56)cc4C3)c(C)cc2n1` [Compound 1-288, 2,8-dimethyl-7-(3-(pyrazolo[1,5-a]pyridin-3-yl)-7,8-dihydro-1,6-naphthyridin-6(5H)-yl)-4H-pyrimido[1,2-b] pyridazin-4-one], the Emax at 30 µM came out at 84% and the EC50 is 311 nM.
As to `Cc1cc(=O)n2nc(N3CCc4ncc(-c5ccccc5OC(F)(F)F)cc4C3)c(C)c(C)c2n1` [Compound 1-275, 2,8,9-trimethyl-7-(3-(2-(trifluoromethoxy)phenyl)-7,8-dihydro-1,6-naphthyridin-6(5H)-yl)-4H-pyrimido[1,2-b]pyridazin-4-one], the Emax at 30 µM came out at 54% and the EC50 is 1790 nM.
As for `Cc1cc2nccc(=O)n2nc1N1CCc2ncc(Nc3cc(F)ccc3C#N)cc2C1` [Compound 2-81, 4-fluoro-2-((6-(8-methyl-4-oxo-4H-pyrimido[1,2-b]pyridazin-7-yl)-5,6,7,8-tetrahydro-1,6-naphthyridin-3-yl)amino)benzonitrile], the Emax at 30 µM amounted to 85% and the EC50 worked out at 230 nM.
`COc1cncc(-c2cnc3c(c2)CN(c2nn4c(=O)ccnc4cc2C)CC3)c1` [Compound 1-52, 7-(3-(5-methoxypyridin-3-yl)-7,8-dihydro-1,6-naphthyridin-6(5H)-yl)-8-methyl-4H-pyrimido[1,2-b]pyridazin-4-one]: the Emax at 30 µM is 47% and the EC50 is 232 nM.
For the compound `COc1ccc(-c2cnc3c(c2)CN(c2nn4c(=O)cc(C)nc4c(C)c2C)CC3)cc1F` [Compound 1-201, 7-(3-(3-fluoro-4-methoxyphenyl)-7,8-dihydro-1,6-naphthyridin-6(5H)-yl)-2,8,9-trimethyl-4H-pyrimido[1,2-b]pyridazin-4-one], the Emax at 30 µM is 86% and the EC50 came out at 603 nM.
`Cc1cc2nc(C)c(Cl)c(=O)n2nc1N1CCc2ncc(Nc3ccncc3F)cc2C1` [Compound 2-161, 3-chloro-7-(3-((3-fluoropyridin-4-yl)amino)-7,8-dihydro-1,6-naphthyridin-6(5H)-yl)-2,8-dimethyl-4H-pyrimido[1,2-b]pyridazin-4-one]: the Emax at 30 µM was determined as 95% and the EC50 was 1 nM.
Consider `Cc1cc(=O)n2nc(N3CCc4ncc(-n5cccn5)cc4C3)c(C)cc2n1` [Compound 2-22, 7-(3-(1H-pyrazol-1-yl)-7,8-dihydro-1,6-naphthyridin-6(5H)-yl)-2,8-dimethyl-4H-pyrimido[1,2-b]pyridazin-4-one], for which the Emax at 30 µM came out at 56% and the EC50 was determined as 97 nM.
Consider `Cc1ncc(-c2cnc3c(c2)CN(c2nn4c(=O)c(Cl)cnc4cc2C)CC3)s1` [Compound 1-13, 3-chloro-8-methyl-7-(3-(2-methylthiazol-5-yl)-7,8-dihydro-1,6-naphthyridin-6(5H)-yl)-4H-pyrimido[1,2-b]pyridazin-4-one], for which the Emax at 30 µM was found to be 79% and the EC50 worked out at 373 nM.
`COc1ccncc1-c1cnc2c(c1)CN(c1nn3c(=O)ccnc3c(C)c1C)CC2` [Compound 1-140, 7-(3-(4-methoxypyridin-3-yl)-7,8-dihydro-1,6-naphthyridin-6(5H)-yl)-8,9-dimethyl-4H-pyrimido[1,2-b]pyridazin-4-one]: the Emax at 30 µM was 89% and the EC50 turned out to be 360 nM.
Turning to `Cc1cc2nccc(=O)n2nc1N1CCc2ncc(-c3cccnc3C(C)C)cc2C1` [Compound 1-422, 7-(3-(2-isopropylpyridin-3-yl)-7,8-dihydro-1,6-naphthyridin-6(5H)-yl)-8-methyl-4H-pyrimido [1,2-b]pyridazin-4-one], the Emax at 30 µM is 64% and the EC50 was determined as 1720 nM.
Taken in the same sequence, the figures for `Cc1cc(=O)n2nc(N3CCc4ncc(-c5ccc(F)cc5F)cc4C3)c(C)cc2n1` [Compound 1-257, 7-(3-(2,4-difluorophenyl)-7,8-dihydro-1,6-naphthyridin-6(5H)-yl)-2,8-dimethyl-4H-pyrimido[1,2-b]pyridazin-4-one] were 76% and 339 nM.
On to `Cc1cc2nccc(=O)n2nc1N1CCc2ncc(N3CCc4ncccc43)cc2C1` [Compound 2-58, 7-(3-(2,3-dihydro-1H-pyrrolo[3,2-b]pyridin-1-yl)-7,8-dihydro-1,6-naphthyridin-6(5H)-yl)-8-methyl-4H-pyrimido[1,2-b]pyridazin-4-one], for which the Emax at 30 µM amounted to 86% and the EC50 was 188 nM.
Take `Cc1cc2nccc(=O)n2nc1N1CCc2ncc(-c3cn(C)nn3)cc2C1` [Compound 1-321, 8-methyl-7-(3-(1-methyl-1H-1,2,3-triazol-4-yl)-7,8-dihydro-1,6-naphthyridin-6(5H)-yl)-4H-pyrimido[1,2-b]pyridazin-4-one]: the Emax at 30 µM is 61% and the EC50 came to 2180 nM.
In the case of `Cc1ccc(-c2cnc3c(c2)CN(c2nn4c(=O)ccnc4c(C)c2C)CC3)cc1F` [Compound 1-143, 7-(3-(3-fluoro-4-methylphenyl)-7,8-dihydro-1,6-naphthyridin-6(5H)-yl)-8,9-dimethyl-4H-pyrimido[1,2-b]pyridazin-4-one], the Emax at 30 µM stood at 102% and the EC50 was found to be 416 nM.
With `Cc1cc2nccc(=O)n2nc1N1CCc2ncc(-c3sc(C(=O)NC4CC4)cc3C)cc2C1` [Compound 1-428, N-cyclopropyl-4-methyl-5-(6-(8-methyl-4-oxo-4H-pyrimido[1,2-b]pyridazin-7-yl)-5,6,7,8-tetrahydro-1,6-naphthyridin-3-yl)thiophene-2-carboxamide], the Emax at 30 µM is 80% and the concentration for a half-maximal effect (EC50) turned out to be 351 nM.
`Cc1nc2c(C)c(C)c(N3CCc4ncc(N5CCCn6nccc65)cc4C3)nn2c(=O)c1F` [Compound 2-12, 7-(3-(6,7-dihydropyrazolo[1,5-a]pyrimidin-4(5H)-yl)-7,8-dihydro-1,6-naphthyridin-6(5H)-yl)-3-fluoro-2,8,9-trimethyl-4H-pyrimido[1,2-b]pyridazin-4-one]: the Emax at 30 µM came to 128% and the EC50 was found to be 39 nM.
The like results for `Cc1cc2nccc(=O)n2nc1N1CCc2ncc(-c3ccccc3C3CC3)cc2C1` [Compound 1-440, 7-(3-(2-cyclopropylphenyl)-7,8-dihydro-1,6-naphthyridin-6(5H)-yl)-8-methyl-4H-pyrimido [1,2-b]pyridazin-4-one] were, in that order, 56% and 380 nM.
Regarding `[2H]C1([2H])Cc2ncc(Nc3ccncc3C)cc2C([2H])([2H])N1c1nn2c(=O)ccnc2cc1C` [Compound 2-165, 8-methyl-7-(3-((3-methylpyridin-4-yl)amino)-7,8-dihydro-1,6-naphthyridin-6(5H)-yl-5,5,7,7-d4)-4H-pyrimido[1,2-b]pyridazin-4-one], the maximal response (Emax) at 30 µM was 66% and the EC50 worked out at 127 nM.
In the case of `Cc1c(N2CCc3ncc(-c4cnn(-c5ccccn5)c4)cc3C2)nn2c(=O)cc(C(F)F)nc2c1C` [Compound 1-163, 2-(difluoromethyl)-8,9-dimethyl-7-(3-(1-(pyridin-2-yl)-1H-pyrazol-4-yl)-7,8-dihydro-1,6-naphthyridin-6(5H)-yl)-4H-pyrimido[1,2-b]pyridazin-4-one], the Emax at 30 µM was determined as 71% and the half-maximal effective concentration (EC50) came out at 1020 nM.
On to `Cc1cc(N(C)C)ncc1-c1cnc2c(c1)CN(c1nn3c(=O)ccnc3cc1C)CC2` [Compound 1-407, 7-(3-(6-(dimethylamino)-4-methylpyridin-3-yl)-7,8-dihydro-1,6-naphthyridin-6(5H)-yl)-8-methyl-4H-pyrimido [1,2-b]pyridazin-4-one], for which the Emax at 30 µM worked out at 92% and the EC50 worked out at 132 nM.

(Values after patent US20250101041A1, “POSITIVE ALLOSTERIC MODULATORS OF THE MUSCARINIC ACETYLCHOLINE RECEPTOR M4” (Vanderbilt University, priority 2022, published 2025).)
